From ChEMBL document CHEMBL3400090, “Benzofused hydroxamic acids: useful fragments for the preparation of histone deacetylase inhibitors. Part 2: 7-fluorobenzothiophenes and benzofurans” (Bioorg Med Chem Lett, 2015)

How the values were obtained:
[1] = Antiproliferative activity against human HCT116 cells after 5 days by Alamar Blue assay; assay type: functional, cell-based; conditions: HCT-116, 120 h
[2] = biological target: T1, Histone deacetylase (Rattus norvegicus) (UniProt Q6P6W3+Q99P99+Q99P96+Q4QQW4+Q99P97+Q5RJZ2+B1WBY8); conditions: at 0.01 µM
Description: Inhibition of isolated rat liver HDAC using substrate containing acetylated lysine side chain assessed as release of fluorophore at 0.01 uM by Fluor de Lys assay

[3] = biological target: T1, Histone deacetylase (Rattus norvegicus); conditions: at 0.1 µM
Description: Inhibition of isolated rat liver HDAC using substrate containing acetylated lysine side chain assessed as release of fluorophore at 0.1 uM by Fluor de Lys assay

SMILES | inhibition [2] [%] | inhibition [3] [%] | IC50 [1] [nM]
COc1ccc(C(=O)NCc2ccc3cc(C(=O)NO)sc3c2F)cc1 | 39 | 78 | 50
Cc1ccc(C(=O)NCc2ccc3cc(C(=O)NO)sc3c2F)s1 | 41 | 80 | 120
O=C(NO)c1cc2ccc(CN3CCc4ccccc4C3)c(F)c2s1 | < 20 | 45 | 3000
O=C(NCc1ccc2cc(C(=O)NO)sc2c1F)c1ccccc1 | 24 | 64 | 980
COc1ccccc1C(=O)NCc1ccc2cc(C(=O)NO)sc2c1F | < 20 | 56 | 1200
CN(C)CCCC(=O)Nc1ccc2oc(C(=O)NO)cc2c1 | < 20 | 26 | –
CN(C)c1ccc(C(=O)NCc2ccc3cc(C(=O)NO)sc3c2F)cc1 | < 20 | 61 | 60
O=C(NCc1ccc2cc(C(=O)NO)sc2c1F)c1ccc[nH]1 | 45 | 76 | 300
Cc1ncoc1C(=O)NCc1ccc2cc(C(=O)NO)sc2c1F | 20 | 61 | 210
O=C(NO)c1cc2ccc(CN(CCO)Cc3ccccc3)c(F)c2s1 | < 20 | 48 | 800

More lines, main results first:

inhibition [2] [%] | inhibition [3] [%] | SMILES | IC50 [1] [nM]
< 20 | 41 | O=C(Cc1ccccc1)Nc1ccc2oc(C(=O)NO)cc2c1 | 1700
< 20 | 34 | CN(C)c1ccc(CC(=O)Nc2ccc3oc(C(=O)NO)cc3c2)cc1 | –
< 20 | 49 | O=C(NCc1ccc2oc(C(=O)NO)cc2c1)c1ccccc1 | 690
21 | 59 | Cc1cc(C(=O)NCc2ccc3cc(C(=O)NO)sc3c2F)oc1C | 470
< 20 | 32 | COc1cccc(CC(=O)Nc2ccc3oc(C(=O)NO)cc3c2)c1 | –
< 20 | 27 | O=C(NCc1ccc2cc(C(=O)NO)oc2c1)c1ccco1 | –
39 | 78 | O=C(NCc1ccc2cc(C(=O)NO)sc2c1F)c1ccco1 | 90
< 20 | 42 | COc1ccc(CC(=O)Nc2ccc3oc(C(=O)NO)cc3c2)cc1 | 2700
23 | 67 | COCc1ccc(C(=O)NCc2ccc3cc(C(=O)NO)sc3c2F)o1 | 310
< 20 | 45 | O=C(NCc1ccc2oc(C(=O)NO)cc2c1)c1ccco1 | 860
